In patent US10316035B2, “Triazolopyridine inhibitors of myeloperoxidase” (BRISTOL-MYERS SQUIBB COMPANY, priority 2015, dated 2019) one finds IC50 data, which are given here for 26 compounds.

The IC50 is the concentration at which inhibition is half-maximal.

The target in experiment [1] is T1, myeloperoxidase (MPO) (Homo sapiens, UniProt P05164).
T1 sequence (P05164 49-745): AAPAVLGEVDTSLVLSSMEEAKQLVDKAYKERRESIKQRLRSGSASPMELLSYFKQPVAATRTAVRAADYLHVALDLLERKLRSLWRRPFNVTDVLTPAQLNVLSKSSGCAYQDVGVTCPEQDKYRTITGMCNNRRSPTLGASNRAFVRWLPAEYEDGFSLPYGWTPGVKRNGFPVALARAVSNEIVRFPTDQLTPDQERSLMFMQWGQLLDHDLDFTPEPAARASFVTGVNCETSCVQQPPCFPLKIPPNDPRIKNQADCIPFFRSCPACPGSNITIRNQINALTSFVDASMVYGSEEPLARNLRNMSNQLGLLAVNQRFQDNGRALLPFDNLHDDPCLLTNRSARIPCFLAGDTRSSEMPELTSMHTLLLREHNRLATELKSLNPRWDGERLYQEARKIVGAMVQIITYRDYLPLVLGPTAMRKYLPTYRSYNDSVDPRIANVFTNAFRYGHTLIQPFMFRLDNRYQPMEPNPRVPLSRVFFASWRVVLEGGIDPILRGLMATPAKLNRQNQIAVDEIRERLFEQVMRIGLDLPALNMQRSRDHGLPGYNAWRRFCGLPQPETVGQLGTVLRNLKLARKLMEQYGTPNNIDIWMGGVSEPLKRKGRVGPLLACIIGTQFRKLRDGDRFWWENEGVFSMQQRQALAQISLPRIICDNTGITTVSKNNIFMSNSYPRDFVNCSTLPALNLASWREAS
In words: MPO chlorination assay (APF assay). In kind it is biochemical. As to the method: [formula] where A=minimal Y value (activity level of inhibited sample), B=maximal Y value (activity level of uninhibited sample), C=Log IC50, D=Hill Slope, x=concentration of inhibitor. MPO Chlorination Assay (APF Assay)
MPO chlorination activity was measured in 100 mM KPi (pH 7.4) by utilizing the non-fluorescent reagent Aminophenyl fluorescein (APF, Invitrogen catalog #A36003). APF is cleaved by (—OCl) to yield the fluorescent compound fluorescein. Reactions were carried out in 50 μL total volume by adding a 25 μL mixture of 200 pM myeloperoxidase and 120 mM NaCl to 100 nL inhibitor in 100% DMSO in a 384 well, non-binding surface clear bottom plate (CORNING® #3655). Enzyme, inhibitor, and chloride were preincubated for ten minutes at room temperature.
After the ten minute preincubation, 25 μL of an APF mixture containing […], 120 mM NaCl and 10 μM H2O2 was added to the plate using the internal dispensing system of a Hammatsu FDSS 6000. Kinetic determinations were carried out immediately on the FDSS 6000 (3 minute kinetic read, 1 read every second, ex: 485 nm, em: 535 nm). IC50 values for inhibitors were calculated by taking the slope of the linear portion of the kinetic measurement (20 seconds to ˜80-120 secs).
IC50 values were calculated by determining the slope of the linear portion of the kinetic trace ([…]), and using that calculated slope to determine % inhibition occurring at each concentration of inhibitor using the following equation:
[formula] where A=minimal Y value (activity level of inhibited sample), B=maximal Y value (activity level of uninhibited sample), C=Log IC50, D=Hill Slope, x=concentration of inhibitor. EPX Bromination Assay

In experiment [2] the target is T1, myeloperoxidase (MPO). In words: MPO peroxidation assay (Amplex Red assay). In kind it is biochemical. The method, boiled down: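 MPO (200 pM) with 40 nM H2O2 was preincubated 10 min at room temperature with inhibitor in 100 mM KPi pH 7.4. A mix of Amplex Red (200 μM) and H2O2 (10 mM) was then added and resorufin fluorescence read kinetically for 15 min. Slopes over 180–540 s gave % inhibition and IC50 via a four-parameter Hill fit.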

Setting [3] is: MPO chlorination, potency range class, read-out: APF IC50.
Where [4] appears, read: MPO peroxidation, potency range class, read-out: Amplex Red IC50.

For the compound `Nc1cc(OCc2cc(Cl)ccc2OC(F)(F)F)c2nn[nH]c2n1` [Example 36, 7-(5-Chloro-2-(trifluoromethoxy)benzyloxy)-3H-[1,2,3]triazolo[4,5-b]pyridin-5-amine], the IC50 on myeloperoxidase (MPO) [1] (setting [3]) and at myeloperoxidase (MPO) [2] (setting [4]) was 1 to 100 nM in each case.
In the case of `Nc1cc(OCc2cc(Cl)ccc2OC2CCCC2)c2nn[nH]c2n1` [Example 43, 7-(5-Chloro-2-(cyclopentyloxy)benzyloxy)-3H-[1,2,3]triazolo[4,5-b]pyridin-5-amine], the results for the half-maximal inhibitory concentration (IC50) on myeloperoxidase (MPO) [1] (setting [3]) and at myeloperoxidase (MPO) [2] (setting [4]) were 101 to 999 nM and 1 to 100 nM, respectively.
`CS(=O)(=O)c1ccc(Cl)cc1COc1cc(N)nc2[nH]nnc12` [Example 50, 7-(5-Chloro-2-(methylsulfonyl)benzyloxy)-3H-[1,2,3]triazolo[4,5-b]pyridin-5-amine]: the IC50 on myeloperoxidase (MPO) [1] (setting [3]) lay within 101 to 999 nM; at myeloperoxidase (MPO) [2] (setting [4]), 1 to 100 nM.
For `Nc1cc(OCC2CCCc3ccccc32)c2nn[nH]c2n1` (centres unmarked) [Example 52, 7-((1,2,3,4-Tetrahydronaphthalen-1-yl)methoxy)-3H-[1,2,3]triazolo[4,5-b]pyridin-5-amine], in that order: 1000 to 10000 nM and 101 to 999 nM.
For the compound `COc1ccc(Cl)cc1COc1cc(N)nc2[nH]nnc12` [Example 57, 7-(5-Chloro-2-methoxybenzyloxy)-3H-[1,2,3]triazolo[4,5-b]pyridin-5-amine], the IC50 at myeloperoxidase (MPO) [1] (setting [3]) and on myeloperoxidase (MPO) [2] (setting [4]) was 1 to 100 nM in each case.
On to `Nc1cc(OCc2cc(Br)ccc2F)c2nn[nH]c2n1` [Example 61, 7-(5-Bromo-2-fluorobenzyloxy)-3H-[1,2,3]triazolo[4,5-b]pyridin-5-amine], for which the IC50 at myeloperoxidase (MPO) [1] (setting [3]) and on myeloperoxidase (MPO) [2] (setting [4]) was 1 to 100 nM each time.
Regarding `CC1CCCC(C)C1COc1cc(N)nc2[nH]nnc12` (centres unmarked) [Example 133, 7-((2,6-Dimethylcyclohexyl)methoxy)-3H-[1,2,3]triazolo[4,5-b]pyridin-5-amine], the IC50 at myeloperoxidase (MPO) [1] (setting [3]) lay in the range of 101 to 999 nM; on myeloperoxidase (MPO) [2] (setting [4]) it was 1 to 100 nM.
With `CC(Oc1cc(N)nc2[nH]nnc12)c1cccc(F)c1` (centres unmarked) [Example 139, 7-(1-(3-Fluorophenyl)ethoxy)-3H-[1,2,3]triazolo[4,5-b]pyridin-5-amine], the values for the IC50 at myeloperoxidase (MPO) [1] (setting [3]) and on myeloperoxidase (MPO) [2] (setting [4]) were 101 to 999 nM and 1 to 100 nM, respectively.
With `Nc1cc(OCc2cc(C(=O)N3CCC(Cc4ccccc4)C3)ccc2Cl)c2nn[nH]c2n1` (centres unmarked) [Example 177, (3-((5-amino-3H-[1,2,3]triazolo [4,5-b]pyridin-7-yloxy)methyl)-4-chlorophenyl)(3-benzylpyrrolidin-1-yl)methanone], the figures for the IC50 on myeloperoxidase (MPO) [1] (setting [3]) and at myeloperoxidase (MPO) [2] (setting [4]) were 1000 to 10000 nM and 101 to 999 nM, respectively.
For `Nc1cc(OCc2cc(S(F)(F)(F)(F)F)ccc2F)c2nn[nH]c2n1` [Example 226, 7-(5-Pentafluorosulfanyl-2-fluorobenzyloxy)-3H-[1,2,3]triazolo[4,5-b]pyridin-5-amine], in that order: 101 to 999 nM and 1 to 100 nM.
As to `Nc1cc(OCc2c(Cl)cccc2Cl)c2nn[nH]c2n1` [Example 234, 7-((2,6-Dichlorobenzyl)oxy)-3H-[1,2,3]triazolo[4,5-b]pyridin-5-amine], the IC50 at myeloperoxidase (MPO) [1] and against myeloperoxidase (MPO) [2] was 1 to 100 nM in each case.
For the compound `COc1cc(Br)ccc1COc1cc(N)nc2[nH]nnc12` [Example 242, 7-((4-Bromo-2-methoxybenzyl)oxy)-3H-[1,2,3]triazolo[4,5-b]pyridin-5-amine], the IC50 on myeloperoxidase (MPO) [1] (setting [3]) and at myeloperoxidase (MPO) [2] (setting [4]) was 1 to 100 nM each time.
`NC(=O)c1ccccc1COc1cc(N)nc2[nH]nnc12` [Example 254, 2-(((5-Amino-3H-[1,2,3]triazolo[4,5-b]pyridin-7-yl)oxy)methyl)benzamide]: the IC50 on myeloperoxidase (MPO) [1] (setting [3]) and at myeloperoxidase (MPO) [2] (setting [4]) was 1000 to 10000 nM in each case.
In the case of `Nc1cc(OCc2ccc(-n3cc(C(F)(F)F)cn3)cc2OC(F)(F)F)c2nn[nH]c2n1` [Example 271, 7-((2-(trifluoromethoxy)-4-(4-(trifluoromethyl)-1H-pyrazol-1-yl)benzyl)oxy)-3H-[1,2,3]triazolo[4,5-b]pyridin-5-amine], the half-inhibitory concentration (IC50) at myeloperoxidase (MPO) [1] (setting [3]) was 1000 to 10000 nM; at myeloperoxidase (MPO) [2] (setting [4]) it was 1 to 100 nM.
Consider `Cc1nccn1-c1ccc(COc2cc(N)nc3[nH]nnc23)c(C#N)c1` [Example 277, 2-(((5-amino-3H-[1,2,3]triazolo[4,5-b]pyridin-7-yl)oxy)methyl)-5-(2-methyl-1H-imidazol-1-yl)benzonitrile], for which the figures for the IC50 at myeloperoxidase (MPO) [1] (setting [3]) and at myeloperoxidase (MPO) [2] (setting [4]) were 1000 to 10000 nM and 101 to 999 nM, respectively.
For the compound `NC(=O)c1ccc(-c2cc(F)c(COc3cc(N)nc4[nH]nnc34)c(F)c2)cn1` [Example 341, 5-(4-(((5-amino-3H-[1,2,3]triazolo[4,5-b]pyridin-7-yl)oxy)methyl)-3,5-difluorophenyl) picolinamide], at myeloperoxidase (MPO) [2] (setting [4]), the IC50 was in the range of 1 to 100 nM.
Take `Nc1cc(OCc2c(F)ccc(-c3ccc(N4CCOCC4)nc3)c2Cl)c2nn[nH]c2n1` [Example 342, 7-((2-chloro-6-fluoro-3-(6-morpholinopyridin-3-yl)benzyl)oxy)-3H-[1,2,3]triazolo[4,5-b] pyridin-5-amine]: on myeloperoxidase (MPO) [2] (setting [4]), the IC50 fell in the range of 1 to 100 nM.
Still for that read-out and setting: with `Nc1cncc(-c2ccc(F)c(COc3cc(N)nc4[nH]nnc34)c2Cl)c1` [Example 343, 7-((3-(5-aminopyridin-3-yl)-2-chloro-6-fluorobenzyl)oxy)-3H-[1,2,3]triazolo[4,5-b] pyridin-5-amine] the figure was 1 to 100 nM; with `Nc1cc(OCc2c(F)ccc(-c3ccc(N4CCNCC4)nc3)c2Cl)c2nn[nH]c2n1` [Example 344, 7-((2-chloro-6-fluoro-3-(6-(piperazin-1-yl)pyridin-3-yl)benzyl)oxy)-3H-[1,2,3]triazolo [4,5-b]pyridin-5-amine], 1 to 100 nM.
Still for that read-out and setting: the same measure for `CN1CCN(c2ccc(-c3ccc(F)c(COc4cc(N)nc5[nH]nnc45)c3)cn2)CC1` [Example 346, 7-((2-fluoro-5-(6-(4-methylpiperazin-1-yl)pyridin-3-yl)benzyl)oxy)-3H-[1,2,3]triazolo [4,5-b]pyridin-5-amine]: 101 to 999 nM; for `Nc1cc(OCc2cc(-c3ccc(CO)nc3)ccc2F)c2nn[nH]c2n1` [Example 347, (5-(3-(((5-amino-3H-[1,2,3]triazolo[4,5-b]pyridin-7-yl)oxy)methyl)-4-fluorophenyl)pyridin-2-yl)methanol]: 1 to 100 nM.
Take `CN1CCN(c2ncc(-c3ccc(F)c(COc4cc(N)nc5[nH]nnc45)c3Cl)cn2)CC1` [Example 348, 7-((2-chloro-6-fluoro-3-(2-(4-methylpiperazin-1-yl)pyrimidin-5-yl)benzyl)oxy)-3H-[1,2,3]triazolo[4,5-b] pyridin-5-amine]: the IC50 at myeloperoxidase (MPO) [2] (setting [4]) is 101 to 999 nM.
For `N#Cc1cc(-c2ccc(N3CCNC(=O)C3)nc2)ccc1COc1cc(N)nc2[nH]nnc12` [Example 349, 2-(((5-Amino-3H-[1,2,3]triazolo[4,5-b]pyridin-7-yl)oxy)methyl)-5-(6-(3-oxopiperazin-1-yl)pyridin-3-yl)benzonitrile], the IC50 at myeloperoxidase (MPO) [2] (setting [4]) was in the range of 101 to 999 nM.
On to `CC1CN(c2ccc(-c3ccc(COc4cc(N)nc5[nH]nnc45)c(C#N)c3)cn2)CC(C)N1` (centres unmarked) [Example 350, 2-(((5-Amino-3H-[1,2,3]triazolo[4,5-b]pyridin-7-yl)oxy)methyl)-5-(6-(3,5-dimethylpiperazin-1-yl)pyridin-3-yl)benzonitrile], for which the IC50 at myeloperoxidase (MPO) [2] (setting [4]) was 1 to 100 nM.
As for `N#Cc1ccc(OC(F)F)cc1COc1cc(N)nc2[nH]nnc12` [Example 351, 2-(((5-amino-3H-[1,2,3]triazolo[4,5-b]pyridin-7-yl)oxy)methyl)-4-(difluoromethoxy)benzonitrile], on myeloperoxidase (MPO) [2] (setting [4]), the 50% inhibitory concentration (IC50) was 1 to 100 nM.
On the same count and under the same terms, the same measure for `N#Cc1ccc(OC2CC2)cc1COc1cc(N)nc2[nH]nnc12` [Example 352, 2-(((5-amino-3H-[1,2,3]triazolo[4,5-b]pyridin-7-yl)oxy)methyl)-4-cyclopropoxybenzonitrile]: 1 to 100 nM.
